Each block holds one compound with its values, some of them ahead of it.
Assays:
[1] = system: HT-29; test: Cytotoxicity against human HT-29 cells assessed as reduction in cell viability by MTT assay; type: functional, cell-based
[2] = system: MCF7; test: cells; settings: Homo sapiens, MCF7, 48 h
Description: Anticancer activity against human MCF7 cells assessed as inhibition of cell growth incubated for 48 hrs by SRB assay

[3] = system: MDA-MB-231; test: Antiproliferative activity against human MDA-MB-231 cells assessed as reduction in cell viability measured after 72 hrs under hypoxia condition by MTT assay; type: functional, cell-based; settings: MDA-MB-231, 72 h
[4] = system: MDA-MB-231; test: Cytotoxicity against human MDA-MB-231 cells assessed as cell growth inhibition measured after 48 hrs by SRB assay; type: functional, cell-based; settings: MDA-MB-231, 48 h
[5] = system: HCT-116; test: Cytotoxicity against human HCT-116 cells assessed as reduction in cell viability incubated for 96 hrs by MTT assay; type: functional, cell-based; settings: HCT-116, 96 h
[6] = system: HCT-116; test: Cytotoxicity against human HCT-116 cells assessed as reduction in cell viability incubated for 48 hrs by SRB assay; type: functional, cell-based; settings: HCT-116, 48 h
[7] = system: HT-29; test: Cytotoxicity against human HT-29 cells assessed as reduction in cell viability incubated for 48 hrs by SRB assay; type: functional, cell-based; settings: HT-29, 48 h
[8] = system: MDA-MB-231; test: Antiproliferative activity against human MDA-MB-231 cells assessed as cell growth inhibition incubated for 96 hrs by MTT assay; type: functional, cell-based; settings: MDA-MB-231, 96 h
[9] = system: T47D; test: Anticancer activity against human T47D cells assessed as cell growth inhibition; type: functional, cell-based

SMILES: Cc1c(Cl)c(=O)oc2cc(OCCn3cc(CO[C@H]4O[C@@H]5O[C@@]6(C)CC[C@H]7[C@H](C)CC[C@@H]([C@H]4C)[C@@]57OO6)nn3)ccc12
- IC50 [1]: 0.05 µM

- IC50 [2]: 5.41 µM
SMILES: Cc1ccc(/N=N/c2sc(N3N=C(c4c(O)c5ccccc5oc4=O)CC3c3ccc(N(C)C)cc3)nc2-c2ccccc2)cc1 (centres undefined)

- IC50 [3]: 0.25 µM
SMILES: COC(=O)c1cccc(NC(=O)c2ccc(-n3cc(COc4cc(=O)oc5ccccc45)nn3)cc2)c1

SMILES: Cc1ccc2c(Cn3cc(CO[C@H]4O[C@@H]5O[C@@]6(C)CC[C@H]7[C@H](C)CC[C@@H]([C@H]4C)[C@@]57OO6)nn3)cc(=O)oc2c1
- IC50 [4]: > 100 µM

SMILES: Cc1cc(C)c2c(Cn3cc(CO[C@H]4O[C@@H]5O[C@@]6(C)CC[C@H]7[C@H](C)CC[C@@H]([C@H]4C)[C@@]57OO6)nn3)cc(=O)oc2c1
- IC50 [4]: > 100 µM

- IC50 [2]: 5.41 µM
SMILES: CN(C)c1ccc(C2CC(c3cc4ccccc4oc3=O)=NN2c2nc(-c3ccccc3)c(/N=N/c3ccc(Cl)cc3)s2)cc1 (centres undefined)

SMILES: C[C@H]1[C@@H](OCc2cn(Cc3cc(=O)oc4cc(O)ccc34)nn2)O[C@@H]2O[C@@]3(C)CC[C@H]4[C@H](C)CC[C@@H]1[C@@]24OO3
- IC50 [4]: > 100 µM

SMILES: Cc1ccc2oc(=O)cc(Cn3cc(CO[C@H]4O[C@@H]5O[C@@]6(C)CC[C@H]7[C@H](C)CC[C@@H]([C@H]4C)[C@@]57OO6)nn3)c2c1
- IC50 [4]: > 100 µM

- IC50 [2]: 5.41 µM
SMILES: CN(C)c1ccc(C2CC(c3c(O)c4ccccc4oc3=O)=NN2c2nc(-c3ccccc3)c(/N=N/c3ccc(Cl)cc3)s2)cc1 (centres undefined)

SMILES: Cc1c(C)c2ccc(OCCn3cc(CO[C@H]4O[C@@H]5O[C@@]6(C)CC[C@H]7[C@H](C)CC[C@@H]([C@H]4C)[C@@]57OO6)nn3)cc2oc1=O
- IC50 [1]: 0.05 µM

SMILES: CCOC(=O)c1cc2ccc(OCCn3cc(CO[C@H]4O[C@@H]5O[C@@]6(C)CC[C@H]7[C@H](C)CC[C@@H]([C@H]4C)[C@@]57OO6)nn3)cc2oc1=O
- IC50 [1]: 0.05 µM

SMILES: C[C@H]1[C@@H](OCc2cn(CCOc3ccc4c(C(F)(F)F)cc(=O)oc4c3)nn2)O[C@@H]2O[C@@]3(C)CC[C@H]4[C@H](C)CC[C@@H]1[C@@]24OO3
- IC50 [1]: 0.05 µM

SMILES: CCOC(=O)c1cc2ccc(OCCCn3cc(CO[C@H]4O[C@@H]5O[C@@]6(C)CC[C@H]7[C@H](C)CC[C@@H]([C@H]4C)[C@@]57OO6)nn3)cc2oc1=O
- IC50 [1]: 1.22 µM

SMILES: Cc1c(Cl)c(=O)oc2cc(OCCCn3cc(CO[C@H]4O[C@@H]5O[C@@]6(C)CC[C@H]7[C@H](C)CC[C@@H]([C@H]4C)[C@@]57OO6)nn3)ccc12
- IC50 [1]: 1.22 µM

SMILES: Cc1cc(=O)oc2cc(OCCn3cc(CO[C@H]4O[C@@H]5O[C@@]6(C)CC[C@H]7[C@H](C)CC[C@@H]([C@H]4C)[C@@]57OO6)nn3)ccc12
- IC50 [1]: 0.05 µM

SMILES: Cc1cc(=O)oc2cc(OCCCn3cc(CO[C@H]4O[C@@H]5O[C@@]6(C)CC[C@H]7[C@H](C)CC[C@@H]([C@H]4C)[C@@]57OO6)nn3)ccc12
- IC50 [1]: 1.22 µM

SMILES: Cc1c(C)c2ccc(OCCCn3cc(CO[C@H]4O[C@@H]5O[C@@]6(C)CC[C@H]7[C@H](C)CC[C@@H]([C@H]4C)[C@@]57OO6)nn3)cc2oc1=O
- IC50 [1]: 1.22 µM

SMILES: C[C@H]1[C@@H](OCc2cn(CCCOc3ccc4c(C(F)(F)F)cc(=O)oc4c3)nn2)O[C@@H]2O[C@@]3(C)CC[C@H]4[C@H](C)CC[C@@H]1[C@@]24OO3
- IC50 [1]: 1.22 µM

SMILES: C[C@H]1[C@@H](OCCCc2cn(COc3ccc4c(C(F)(F)F)cc(=O)oc4c3)nn2)O[C@@H]2O[C@@]3(C)CC[C@H]4[C@H](C)CC[C@@H]1[C@@]24OO3
- IC50 [1]: > 100 µM

SMILES: Cc1cccc2c(OCn3cc(CCO[C@H]4O[C@@H]5O[C@@]6(C)CC[C@H]7[C@H](C)CC[C@@H]([C@H]4C)[C@@]57OO6)nn3)cc(=O)oc12
- IC50 [5]: > 100 µM

- IC50 [2]: 5.41 µM
SMILES: CC1SC(N2N=C(c3cc4ccccc4oc3=O)CC2c2ccc(N(C)C)cc2)=NC1=O (centres undefined)

SMILES: CCCc1cc(=O)oc2cc(Nc3nc(-c4ccc(Cl)cc4)cs3)ccc12
- IC50 [6]: 0.25 µM
- IC50 [7]: 0.25 µM

SMILES: CCOC(=O)c1cc2ccc(OCn3cc(CCCO[C@H]4O[C@@H]5O[C@@]6(C)CC[C@H]7[C@H](C)CC[C@@H]([C@H]4C)[C@@]57OO6)nn3)cc2oc1=O
- IC50 [1]: > 100 µM

SMILES: Cc1ccc2oc(=O)cc(OCn3cc(CCCO[C@H]4O[C@@H]5O[C@@]6(C)CC[C@H]7[C@H](C)CC[C@@H]([C@H]4C)[C@@]57OO6)nn3)c2c1
- IC50 [8]: 0.039 µM
- IC50 [5]: 0.039 µM

SMILES: Cc1cc(=O)oc2cc(Nc3nc(-c4ccc(Br)cc4)cs3)ccc12
- IC50 [6]: 0.25 µM
- IC50 [7]: 0.25 µM

SMILES: CCCc1cc(=O)oc2cc(Nc3nc(-c4ccc(Br)cc4)cs3)ccc12
- IC50 [6]: 0.26 µM
- IC50 [7]: 0.25 µM

SMILES: C[C@H]1[C@@H](OCCc2cn(Cc3cc(=O)oc4cc(O)ccc34)nn2)O[C@@H]2O[C@@]3(C)CC[C@H]4[C@H](C)CC[C@@H]1[C@@]24OO3
- IC50 [4]: > 100 µM

SMILES: C[C@H]1[C@@H](OCCc2cn(COc3cc(=O)oc4ccccc34)nn2)O[C@@H]2O[C@@]3(C)CC[C@H]4[C@H](C)CC[C@@H]1[C@@]24OO3
- IC50 [5]: > 100 µM

SMILES: Cc1cccc2c(OCn3cc(CCCO[C@H]4O[C@@H]5O[C@@]6(C)CC[C@H]7[C@H](C)CC[C@@H]([C@H]4C)[C@@]57OO6)nn3)cc(=O)oc12
- IC50 [8]: 0.039 µM
- IC50 [5]: 0.039 µM

SMILES: Cc1cc(=O)oc2cc(Nc3nc(-c4ccc(Cl)cc4)cs3)ccc12
- IC50 [6]: 0.25 µM
- IC50 [7]: 0.25 µM

SMILES: COc1ccccc1-c1csc(Nc2ccc3c(C)cc(=O)oc3c2)n1
- IC50 [6]: 0.25 µM
- IC50 [7]: 0.25 µM

SMILES: Cc1ccc2c(OCn3cc(CCCO[C@H]4O[C@@H]5O[C@@]6(C)CC[C@H]7[C@H](C)CC[C@@H]([C@H]4C)[C@@]57OO6)nn3)cc(=O)oc2c1C
- IC50 [8]: 0.039 µM
- IC50 [5]: 0.039 µM

SMILES: Cc1c(Cl)c(=O)oc2cc(OCn3cc(CCCO[C@H]4O[C@@H]5O[C@@]6(C)CC[C@H]7[C@H](C)CC[C@@H]([C@H]4C)[C@@]57OO6)nn3)ccc12
- IC50 [1]: > 100 µM

SMILES: Cc1ccc2c(Cn3cc(CCO[C@H]4O[C@@H]5O[C@@]6(C)CC[C@H]7[C@H](C)CC[C@@H]([C@H]4C)[C@@]57OO6)nn3)cc(=O)oc2c1
- IC50 [4]: > 100 µM

- IC50 [2]: 5.41 µM
SMILES: Cc1nc(N2N=C(c3cc4ccccc4oc3=O)CC2c2ccc(N(C)C)cc2)sc1/N=N/c1ccc(Cl)cc1 (centres undefined)

SMILES: Cc1ccc2c(OCn3cc(CCO[C@H]4O[C@@H]5O[C@@]6(C)CC[C@H]7[C@H](C)CC[C@@H]([C@H]4C)[C@@]57OO6)nn3)cc(=O)oc2c1C
- IC50 [5]: > 100 µM

SMILES: Cc1cc(=O)oc2cc(OCn3cc(CCCO[C@H]4O[C@@H]5O[C@@]6(C)CC[C@H]7[C@H](C)CC[C@@H]([C@H]4C)[C@@]57OO6)nn3)ccc12
- IC50 [1]: > 100 µM

SMILES: C[C@H]1[C@@H](OCCCc2cn(COc3cc(=O)oc4ccccc34)nn2)O[C@@H]2O[C@@]3(C)CC[C@H]4[C@H](C)CC[C@@H]1[C@@]24OO3
- IC50 [8]: 0.039 µM
- IC50 [5]: 0.039 µM

SMILES: Cc1cc(C)c2c(OCn3cc(CCO[C@H]4O[C@@H]5O[C@@]6(C)CC[C@H]7[C@H](C)CC[C@@H]([C@H]4C)[C@@]57OO6)nn3)cc(=O)oc2c1
- IC50 [5]: > 100 µM

SMILES: Cc1ccc2oc(=O)cc(Cn3cc(CCO[C@H]4O[C@@H]5O[C@@]6(C)CC[C@H]7[C@H](C)CC[C@@H]([C@H]4C)[C@@]57OO6)nn3)c2c1
- IC50 [4]: > 100 µM

SMILES: Cc1cc(C)c2oc(=O)cc(OCn3cc(CCCO[C@H]4O[C@@H]5O[C@@]6(C)CC[C@H]7[C@H](C)CC[C@@H]([C@H]4C)[C@@]57OO6)nn3)c2c1
- IC50 [8]: 0.039 µM
- IC50 [5]: 0.039 µM

SMILES: Cc1cc(C)c2c(Cn3cc(CCO[C@H]4O[C@@H]5O[C@@]6(C)CC[C@H]7[C@H](C)CC[C@@H]([C@H]4C)[C@@]57OO6)nn3)cc(=O)oc2c1
- IC50 [4]: > 100 µM

SMILES: Cc1c(C)c2ccc(OCn3cc(CCO[C@H]4O[C@@H]5O[C@@]6(C)CC[C@H]7[C@H](C)CC[C@@H]([C@H]4C)[C@@]57OO6)nn3)cc2oc1=O
- IC50 [1]: 2.46 µM

SMILES: CCOC(=O)c1cc2ccc(OCn3cc(CCO[C@H]4O[C@@H]5O[C@@]6(C)CC[C@H]7[C@H](C)CC[C@@H]([C@H]4C)[C@@]57OO6)nn3)cc2oc1=O
- IC50 [1]: 2.46 µM

SMILES: Cc1cc(=O)oc2cc(OCn3cc(CCO[C@H]4O[C@@H]5O[C@@]6(C)CC[C@H]7[C@H](C)CC[C@@H]([C@H]4C)[C@@]57OO6)nn3)ccc12
- IC50 [1]: 2.46 µM

SMILES: Cc1cc(C)c2oc(=O)cc(OCn3cc(CCO[C@H]4O[C@@H]5O[C@@]6(C)CC[C@H]7[C@H](C)CC[C@@H]([C@H]4C)[C@@]57OO6)nn3)c2c1
- IC50 [5]: > 100 µM

SMILES: Cc1c(C)c2ccc(OCn3cc(CCCO[C@H]4O[C@@H]5O[C@@]6(C)CC[C@H]7[C@H](C)CC[C@@H]([C@H]4C)[C@@]57OO6)nn3)cc2oc1=O
- IC50 [1]: > 100 µM

SMILES: Cc1cc(C)c2c(OCn3cc(CCCO[C@H]4O[C@@H]5O[C@@]6(C)CC[C@H]7[C@H](C)CC[C@@H]([C@H]4C)[C@@]57OO6)nn3)cc(=O)oc2c1
- IC50 [8]: 0.039 µM
- IC50 [5]: 0.039 µM

SMILES: Cc1ccc2c(OCn3cc(CCCO[C@H]4O[C@@H]5O[C@@]6(C)CC[C@H]7[C@H](C)CC[C@@H]([C@H]4C)[C@@]57OO6)nn3)cc(=O)oc2c1
- IC50 [8]: 0.039 µM
- IC50 [5]: 0.039 µM

- IC50 [9]: 0.9 µM
SMILES: O=C(/C=C/c1ccc(N2CCOCC2)cc1)c1cc2ccccc2oc1=O

SMILES: Cc1c(Cl)c(=O)oc2cc(OCn3cc(CCO[C@H]4O[C@@H]5O[C@@]6(C)CC[C@H]7[C@H](C)CC[C@@H]([C@H]4C)[C@@]57OO6)nn3)ccc12
- IC50 [1]: 2.46 µM

SMILES: C[C@H]1[C@@H](OCCc2cn(COc3ccc4c(C(F)(F)F)cc(=O)oc4c3)nn2)O[C@@H]2O[C@@]3(C)CC[C@H]4[C@H](C)CC[C@@H]1[C@@]24OO3
- IC50 [1]: 2.46 µM
